Test results taken from ChEMBL document CHEMBL4765299 (Eur J Med Chem, 2020).
pIC50: −log10 of the molar value. Active and inactive are the calls of the source. No cut-off for these calls is given here.

Assays:
[1] = against A against n against t against i against p against r against o against l against i against f against e against r against a against t against i against v against e against a against c against t against i against v against i against t against y against a against g against a against i against n against s against t against h against u against m against a against n against K against 5 against 6 against 2 against c against e against l against l against s against a against s against s against e against s against s against e against d against a against s against r against e against d against u against c against t against i against o against n against i against n against c against e against l against l against v against i against a against b against i against l against i against t against y against m against e against a against s against u against r against e against d against a against f against t against e against r against 7 against 2 against h against r against s against b against y against M against T against T against a against s against s against a against y against; type: functional, tissue-based, Homo sapiens; conditions: k562
[2] = Toxicity in ICR mouse allografted with mouse H22 cells assessed as liver morphological changes at 30 mg/kg, iv administered daily for 21 days by hematoxylin and eosin staining based microscopic analysis; type: organism-based; conditions: in vivo, 504 h, dose 30 mg/kg/day, time 21 day
[3] = test system: HUVEC; assay: Inhibition of cell migration in HUVEC assessed as wound closure at 10 nM after 24 hrs by scratch wound healing assay (reference value: 76.3%); type: functional, Homo sapiens; design: scale not given: the % may be the effect or the level left
[4] = test system: H22; assay: Antiproliferative activity against mouse H22 cells assessed as inhibition of cell growth by MTT assay; type: functional, cell-based
[5] = test system: K562; assay: Induction of cell cycle arrest in human K562 cells assessed as accumulation at S phase at 5 nM incubated for 48 hrs by propidium iodide/RNase staining based flow cytometry (reference value: 53.48%); type: functional
[6] = species: Sus scrofa; assay: Displacement of [3H]colchicine from porcine brain tubulin at 1 uM incubated for 2 hrs by TopCount scintillation counting method relative to control; type: tissue-based
[7] = test system: HUVEC; assay: Anti-angiogenesis activity in HUVEC assessed as inhibition of capillary-like tube formation at 5 nM incubated for 6 hrs by Matrigel-based optical microscopy; type: functional, cell-based; conditions: Homo sapiens
[8] = test system: K562; assay: Induction of apoptosis in human K562 cells assessed as late apoptotic cells at 10 nM incubated for 48 hrs by AnnexinV-FITC/propidium iodide staining based flow cytometry analysis (reference value: 1.78%); type: functional
[9] = test system: K562; assay: Induction of mitochondrial membrane potential depolarization in human K562 cells assessed proportion of cells with intact MMP at 5 nM measured after 48 hrs by JC-1 staining based flow cytometry (reference value: 98.12%); type: functional
[10] = test system: K562; assay: Induction of cell cycle arrest in human K562 cells assessed as accumulation at S phase at 20 nM incubated for 48 hrs by propidium iodide/RNase staining based flow cytometry (reference value: 53.48%); type: functional
[11] = test system: K562; assay: Induction of cell cycle arrest in human K562 cells assessed as accumulation at G2/M phase at 20 nM incubated for 48 hrs by propidium iodide/RNase staining based flow cytometry (reference value: 7.7%); type: functional
[12] = test system: K562; assay: Induction of mitochondrial membrane potential depolarization in human K562 cells assessed proportion of cells with intact MMP at 10 nM measured after 48 hrs by JC-1 staining based flow cytometry (reference value: 98.12%); type: functional
[13] = against C against y against t against o against t against o against x against i against c against i against t against y against a against g against a against i against n against s against t against h against u against m against a against n against H against F against L against - against 1 against c against e against l against l against s against a against s against s against e against s against s against e against d against a against s against r against e against d against u against c against t against i against o against n against i against n against c against e against l against l against v against i against a against b against i against l against i against t against y against m against e against a against s against u against r against e against d against a against f against t against e against r against 7 against 2 against h against r against s against b against y against M against T against T against a against s against s against a against y against; type: ADME, tissue-based; conditions: Homo sapiens, HFL1
[14] = test system: K562; assay: Induction of apoptosis in human K562 cells incubated for 48 hrs by AnnexinV-FITC/propidium iodide staining based flow cytometry; type: functional, cell-based; conditions: dose 5-20 nM
[15] = test system: K562; assay: Induction of mitochondrial membrane potential depolarization in human K562 cells measured after 48 hrs by JC-1 staining based flow cytometry; type: functional, cell-based; conditions: dose 5-20 nM
[16] = test system: K562; assay: Induction of mitochondrial membrane potential depolarization in human K562 cells assessed proportion of cells with collapsed MMP at 5 nM measured after 48 hrs by JC-1 staining based flow cytometry (reference value: 1.57%); type: functional
[17] = test system: H22; assay: Anti-tumor activity against mouse H22 cells allografted in iv dosed ICR mice assessed as reduction in tumor weight administered daily for 21 days; type: functional, organism-based; conditions: dose 15-30 mg/kg/day, time 21.0 day
[18] = Inhibition of porcine brain tubulin polymerization assessed as inhibition of microtubule assembly by measuring decrease in absorbance measured for 60 mins by fluorescence based analysis; type: tissue-based, Sus scrofa
[19] = Toxicity in ICR mouse allografted with mouse H22 cells assessed as spleen morphological changes at 30 mg/kg, iv administered daily for 21 days by hematoxylin and eosin staining based microscopic analysis; type: organism-based; conditions: in vivo, 504 h, dose 30 mg/kg/day, time 21 day
[20] = test system: K562; assay: Induction of cell cycle arrest in human K562 cells assessed as accumulation at G1 phase at 20 nM incubated for 48 hrs by propidium iodide/RNase staining based flow cytometry (reference value: 38.83%); type: functional
[21] = test system: K562; assay: Induction of mitochondrial membrane potential depolarization in human K562 cells assessed proportion of cells with intact MMP at 20 nM measured after 48 hrs by JC-1 staining based flow cytometry (reference value: 98.12%); type: functional
[22] = test system: HUVEC; assay: Anti-angiogenesis activity in HUVEC assessed as inhibition of capillary-like tube formation incubated for 6 hrs by Matrigel-based optical microscopy; type: functional, cell-based; conditions: Homo sapiens, dose 5-20 nM
[23] = test system: H22; assay: Anti-tumor activity against mouse H22 cells allografted in ICR mice assessed as reduction in tumor weight at 15 mg/kg, iv administered daily for 21 days; type: functional; conditions: 504 h, time 21 day
[24] = test system: K562; assay: Induction of mitochondrial membrane potential depolarization in human K562 cells assessed proportion of cells with collapsed MMP at 10 nM measured after 48 hrs by JC-1 staining based flow cytometry (reference value: 1.57%); type: functional
[25] = test system: K562; assay: Anti-microtubule activity in human K562 cells assessed as disruption of microtubule network in cytoplasm incubated for 24 hrs by immunofluorescence assay; type: functional, cell-based; conditions: dose 5-20 nM
[26] = test system: K562; assay: Induction of cell cycle arrest in human K562 cells assessed as increase in accumulation at G2/M phase incubated for 48 hrs by propidium iodide/RNase staining based flow cytometry; type: functional; conditions: dose 5-20 nM
[27] = Toxicity in ICR mouse allografted with mouse H22 cells assessed as lung morphological changes at 30 mg/kg, iv administered daily for 21 days by hematoxylin and eosin staining based microscopic analysis; type: organism-based; conditions: in vivo, 504 h, dose 30 mg/kg/day, time 21 day
[28] = test system: HUVEC; assay: Anti-angiogenesis activity in HUVEC assessed as inhibition of capillary-like tube formation at 10 nM incubated for 6 hrs by Matrigel-based optical microscopy; type: functional, cell-based; conditions: Homo sapiens
[29] = test system: K562; assay: Induction of apoptosis in human K562 cells assessed as late apoptotic cells at 5 nM incubated for 48 hrs by AnnexinV-FITC/propidium iodide staining based flow cytometry analysis (reference value: 1.78%); type: functional
[30] = test system: K562; assay: Induction of cell cycle arrest in human K562 cells assessed as accumulation at G1 phase at 10 nM incubated for 48 hrs by propidium iodide/RNase staining based flow cytometry (reference value: 38.83%); type: functional
[31] = test system: K562; assay: Induction of cell cycle arrest in human K562 cells assessed as accumulation at G2/M phase at 10 nM incubated for 48 hrs by propidium iodide/RNase staining based flow cytometry (reference value: 7.7%); type: functional
[32] = test system: K562; assay: Induction of apoptosis in human K562 cells assessed as early apoptotic cells at 10 nM incubated for 48 hrs by AnnexinV-FITC/propidium iodide staining based flow cytometry analysis (reference value: 1.47%); type: functional

pIC50 [1]: 8.00
inhibition [6]: 66.5%
pIC50 [13]: 6.93
pIC50 [18]: 5.50
SMILES: C=C(c1cc(Cl)nc(NC)c1)c1ccc(OC)c(O)c1
Activity [2]: Non-Toxic
Activity [3]: 55.3%
pIC50 [4]: 7.77
Activity [5]: 50.66%
Activity [7]: Active
Activity [8]: 11.3%
Activity [9]: 86.4%
Activity [10]: 48.07%
Activity [11]: 15.28%
Activity [12]: 79.83%
Activity [14]: Dose-dependent effect
Activity [15]: Dose-dependent effect
Activity [16]: 13.44%
Activity [17]: Dose-dependent effect
Activity [19]: Non-Toxic
Activity [20]: 36.65%
Activity [21]: 61.55%
Activity [22]: Dose-dependent effect
inhibition in vivo at 15 mg/kg/day [23]: 58.7%
Activity [24]: 20.05%
Activity [25]: Dose-dependent effect
Activity [26]: Dose-dependent effect
Activity [27]: Non-Toxic
Activity [28]: Active
Activity [29]: 3.86%
Activity [30]: 38.45%
Activity [31]: 11.54%
Activity [32]: 37.25%
